Experimental data published in ChEMBL document CHEMBL3886458 (2016).

Key:
[1] = molecular target: T1, Poly [ADP-ribose] polymerase tankyrase-1 (Homo sapiens, UniProt O95271); experiment: Biochemical Assay: The autoparsylation activity of the TNKS 1/2 or PARP1/2 enzymes was measured by the liquid chromatography-mass spectrometry (LC/MS) detection of nicotinamide as readout. Compound activity in inhibiting the TNKS and PARP autoparsylation was evaluated by IC50 measurements. In the compound screening assays, the reaction is composed of 5 uL of compound in […]-point serial …
T1 sequence (O95271 whole entry): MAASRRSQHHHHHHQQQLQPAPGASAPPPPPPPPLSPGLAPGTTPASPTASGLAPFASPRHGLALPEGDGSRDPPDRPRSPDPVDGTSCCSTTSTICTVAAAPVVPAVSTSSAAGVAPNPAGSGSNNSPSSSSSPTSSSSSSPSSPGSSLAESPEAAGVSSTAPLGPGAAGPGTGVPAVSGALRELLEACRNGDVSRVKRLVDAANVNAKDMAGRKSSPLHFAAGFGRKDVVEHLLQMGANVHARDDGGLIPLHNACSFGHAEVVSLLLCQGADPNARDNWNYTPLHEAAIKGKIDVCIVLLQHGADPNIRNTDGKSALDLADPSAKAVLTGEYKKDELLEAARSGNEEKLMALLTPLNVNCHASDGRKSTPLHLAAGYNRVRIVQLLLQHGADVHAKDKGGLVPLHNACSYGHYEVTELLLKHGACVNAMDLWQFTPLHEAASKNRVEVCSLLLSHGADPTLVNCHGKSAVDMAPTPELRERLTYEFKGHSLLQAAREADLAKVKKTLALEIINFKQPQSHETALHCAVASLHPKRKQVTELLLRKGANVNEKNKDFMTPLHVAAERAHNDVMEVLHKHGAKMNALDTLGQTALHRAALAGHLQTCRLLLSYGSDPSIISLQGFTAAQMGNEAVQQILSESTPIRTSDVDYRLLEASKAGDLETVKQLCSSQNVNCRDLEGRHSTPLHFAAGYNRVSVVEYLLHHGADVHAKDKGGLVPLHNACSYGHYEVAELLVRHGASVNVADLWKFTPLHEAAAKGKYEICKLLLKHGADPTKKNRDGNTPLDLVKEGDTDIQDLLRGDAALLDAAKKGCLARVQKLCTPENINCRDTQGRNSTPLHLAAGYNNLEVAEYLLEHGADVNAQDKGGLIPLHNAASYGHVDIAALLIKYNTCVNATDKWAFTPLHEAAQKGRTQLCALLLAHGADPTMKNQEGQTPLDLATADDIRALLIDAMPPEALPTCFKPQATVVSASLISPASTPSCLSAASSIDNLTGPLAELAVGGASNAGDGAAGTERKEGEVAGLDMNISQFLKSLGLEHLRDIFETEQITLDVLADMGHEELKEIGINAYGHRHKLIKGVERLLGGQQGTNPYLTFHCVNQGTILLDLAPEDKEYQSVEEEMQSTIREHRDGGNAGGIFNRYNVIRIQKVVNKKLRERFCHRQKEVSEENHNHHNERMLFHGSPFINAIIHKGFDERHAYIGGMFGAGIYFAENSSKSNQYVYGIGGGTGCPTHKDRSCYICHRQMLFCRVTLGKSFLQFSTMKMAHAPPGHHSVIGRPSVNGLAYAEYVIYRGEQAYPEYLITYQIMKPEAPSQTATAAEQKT

[2] = molecular target: T2, Poly [ADP-ribose] polymerase tankyrase-2 (Homo sapiens, UniProt Q9H2K2); experiment: as above
T2 sequence (Q9H2K2 whole entry): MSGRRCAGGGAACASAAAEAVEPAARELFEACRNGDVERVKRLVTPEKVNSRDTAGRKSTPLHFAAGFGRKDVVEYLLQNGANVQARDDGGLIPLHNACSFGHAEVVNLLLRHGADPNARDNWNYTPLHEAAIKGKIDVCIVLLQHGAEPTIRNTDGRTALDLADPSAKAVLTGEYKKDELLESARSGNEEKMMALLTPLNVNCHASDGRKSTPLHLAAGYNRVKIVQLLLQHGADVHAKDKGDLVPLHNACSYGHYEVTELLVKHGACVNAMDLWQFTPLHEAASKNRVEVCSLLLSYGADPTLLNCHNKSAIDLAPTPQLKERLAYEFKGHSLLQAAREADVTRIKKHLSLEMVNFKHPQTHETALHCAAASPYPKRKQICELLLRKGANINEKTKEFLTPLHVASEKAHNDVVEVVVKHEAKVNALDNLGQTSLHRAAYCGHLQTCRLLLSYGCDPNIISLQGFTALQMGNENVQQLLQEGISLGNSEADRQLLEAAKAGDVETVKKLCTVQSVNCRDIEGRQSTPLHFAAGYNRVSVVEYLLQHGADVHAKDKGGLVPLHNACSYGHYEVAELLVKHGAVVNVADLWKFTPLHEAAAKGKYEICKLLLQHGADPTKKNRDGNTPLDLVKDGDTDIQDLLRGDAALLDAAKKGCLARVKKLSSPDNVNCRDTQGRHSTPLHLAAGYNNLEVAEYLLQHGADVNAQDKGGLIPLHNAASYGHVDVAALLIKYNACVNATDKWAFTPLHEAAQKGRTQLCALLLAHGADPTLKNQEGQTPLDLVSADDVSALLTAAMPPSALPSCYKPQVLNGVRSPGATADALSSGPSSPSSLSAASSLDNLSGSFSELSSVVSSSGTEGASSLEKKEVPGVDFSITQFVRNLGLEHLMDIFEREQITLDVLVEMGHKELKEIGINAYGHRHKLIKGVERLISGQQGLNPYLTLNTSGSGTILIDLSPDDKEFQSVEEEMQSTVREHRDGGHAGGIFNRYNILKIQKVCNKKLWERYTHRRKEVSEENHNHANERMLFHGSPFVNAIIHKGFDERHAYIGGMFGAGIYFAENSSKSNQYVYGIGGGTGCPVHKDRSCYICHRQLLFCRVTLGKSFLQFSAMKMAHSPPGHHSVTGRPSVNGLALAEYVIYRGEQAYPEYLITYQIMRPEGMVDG

IC50 [1]	IC50 [2]	SMILES
6.4 µM	1580 nM	O=C(CCc1c[nH]c2ccccc12)N(Cc1nc2c(c(=O)[nH]1)COCC2)Cc1cccs1
5.12 µM	910 nM	O=c1[nH]c(CN(Cc2cccs2)S(=O)(=O)CCc2ccccc2)nc2c1COCC2
1.16 µM	177 nM	O=c1[nH]c(CN(Cc2cccs2)S(=O)(=O)Cc2ccccc2)nc2c1COCC2
